Experimental data published in patent US11285156B2, “Substituted piperazines as KRAS G12C inhibitors” (Amgen Inc., priority 2018, dated 2022).
Read-outs that look alike come from different tables or passages of the source.

Experiments:
[1] = tested on: Phosphorylation of ERK1/2 in A549 cells; test: Phospho-ERK1/2 MSD assay in A549 cells; assay type: cell-based; conditions: read-out: p-ERK IC50 (2 h, A549; μM), 2 h compound treatment, A549 cells, EGF stimulated
Method: (§1) Phospho-ERK1/2 MSD Assay:
(§2) MIA PaCa-2 (ATCC® CRL-1420™) and A549 (ATCC® CCL-185™) cells were cultured in RPMI 1640 Medium (ThermoFisher Scientific 11875093) containing 10% fetal bovine serum (ThermoFisher Scientific 16000044) and 1× penicillin-streptomycin-glutamine (ThermoFisher Scientific 10378016). Sixteen hours prior to compound treatment, MIA PaCa-2 or A549 cells were seeded in 96-well cell culture plates at a density of 25,000 cells/well and incubated at 37° C., 5% CO2. A compound dose-response titration was diluted in growth media, added to appropriate wells of a cell culture plate, and then incubated at 37° C., 5% CO2 for 2 or 4 hours (see Table 15). Following compound treatment, cells were stimulated with 10 ng/mL EGF (Roche 11376454001) for 10 min, washed with ice-cold Dulbecco's phosphate-buffered saline, no Ca2+ or Mg2+ (ThermoFisher Scientific 14190144), and then lysed in RIPA buffer (50 mM Tris-HCl pH 7.5, 1% Igepal, 0.5% sodium deoxycholate, 150 mM NaCl. and 0.5% sodium dodecyl sulfate) containing protease inhibitors (Roche 4693132001) and phosphatase inhibitors (Roche 4906837001). Phosphorylation of ERK1/2 in compound-treated lysates was assayed using Phospho-ERK1/2 Whole Cell Lysate kits (Meso Scale Discovery K151DWD) according to the manufacturer's protocol.

[2] = tested on: Phosphorylation of ERK1/2 in MIA PaCa-2 cells; test: Phospho-ERK1/2 MSD assay in MIA PaCa-2 cells; assay type: cell-based; conditions: read-out: p-ERK IC50 (2 h, MiaPaCa-2; μM), 2 h compound treatment, MIA PaCa-2 cells, EGF stimulated
Method: as §1
as §2, with “Sixteen” for “MIA PaCa-2 (ATCC® CRL-1420™) and A549 (ATCC® CCL-185™) cells were cultured in RPMI 1640 Medium (ThermoFisher Scientific 11875093) containing 10% fetal bovine serum (ThermoFisher Scientific 16000044) and 1× penicillin-streptomycin-glutamine (ThermoFisher Scientific 10378016). Sixteen”

| SMILES | IC50 ([1]; Homo sapiens, A549, 2 h) | IC50 ([2]; Homo sapiens, MIA PaCa-2, 2 h) | IC50 [1] | IC50 [2] |
| --- | --- | --- | --- | --- |
| C=CC(=O)N1C[C@H](C)N(c2nc(=O)n(-c3c(C(C)C)ccnc3C(C)C)c3nc(-c4ccccc4C)c(Cl)cc23)C[C@H]1C (single isomer, unassigned) [Example 125-2] | – | – | > 7.5 µM | 0.038 µM |
| C=CC(=O)N1C[C@H](C)N(c2nc(=O)n(-c3c(C(C)C)ccnc3C(C)C)c3nc(-c4ccccc4C(F)(F)F)c(Cl)cc23)C[C@H]1C (single isomer, unassigned) [Example 125-3] | – | – | > 7.5 µM | 0.041 µM |
| C=CC(=O)N1C[C@H](C)N(c2nc(=O)n(-c3c(C(C)C)ccnc3C(C)C)c3nc(-c4c(O)cccc4F)c(Cl)cc23)C[C@H]1C (single isomer, unassigned) [Example 125-4] | – | – | > 7.5 µM | 0.023 µM |
| C=CC(=O)N1C[C@H](C)N(c2nc(=O)n(-c3c(C(C)C)ccnc3C(C)C)c3nc(-c4ccccc4Cl)c(Cl)cc23)C[C@H]1C (single isomer, unassigned) [Example 125-6] | – | – | > 7.5 µM | 0.105 µM |
| C=CC(=O)N1C[C@H](C)N(c2nc(=O)n(-c3c(C(C)C)ccnc3C(C)C)c3nc(-c4ccccc4)c(Cl)cc23)C[C@H]1C (single isomer, unassigned) [Example 125-7] | – | – | > 7.5 µM | 0.137 µM |
| C=CC(=O)N1C[C@H](C)N(c2nc(=O)n(-c3c(Cl)ccnc3C(C)C)c3nc(-c4ccccc4F)c(Cl)cc23)C[C@H]1C [Example 55-50, 6-Chloro-1-(4-chloro-2-isopropyl-3-pyridyl)-4-[(2S,5R)-2,5-dimethyl-4-prop-2-enoyl-piperazin-1-yl]-7-(2-fluorophenyl)pyrido[2,3-d]pyrimidin-2-one] | > 7.5 µM | 0.023 µM | – | – |
| C=CC(=O)N1C[C@H](C)N(c2nc(=O)n(-c3c(N(C)C)ccnc3C(C)C)c3nc(-c4c(N)cccc4F)c(Cl)cc23)C[C@H]1C [Example 55-54, 7-(2-Amino-6-fluoro-phenyl)-6-chloro-1-[4-(dimethylamino)-2-isopropyl-3-pyridyl]-4-[(2S,5R)-2,5-dimethyl-4-prop-2-enoyl-piperazin-1-yl]pyrido[2,3-d]pyrimidin-2-one] | > 7.5 µM | – | – | 0.016 µM |
| C=CC(=O)N1C[C@H](C)N(c2nc(=O)n(-c3c(N(C)C)ccnc3C(C)C)c3nc(-c4c(N)cccc4F)c(Cl)cc23)C[C@H]1C [Example 55-56, 7-(2-Amino-6-fluoro-phenyl)-6-chloro-1-[4-(dimethylamino)-2-isopropyl-3-pyridyl]-4-[(2S,5R)-2,5-dimethyl-4-prop-2-enoyl-piperazin-1-yl]pyrido[2,3-d]pyrimidin-2-one] | – | – | > 7.5 µM | 0.01 µM |
| C=CC(=O)N1C[C@H](C)N(c2nc(=O)n(-c3c(N(C)C)ccnc3C(C)C)c3nc(-c4c(N)cccc4F)c(Cl)cc23)C[C@H]1C [Example 55-57, 7-(2-Amino-6-fluoro-phenyl)-6-chloro-1-[4-(dimethylamino)-2-isopropyl-3-pyridyl]-4-[(2S,5R)-2,5-dimethyl-4-prop-2-enoyl-piperazin-1-yl]pyrido[2,3-d]pyrimidin-2-one] | – | – | > 7.5 µM | 0.177 µM |
| C=CC(=O)N1C[C@H](C)N(c2nc(=O)n(-c3c(CC)ccnc3C(C)C)c3nc(-c4ccccc4F)c(Cl)cc23)C[C@H]1C [Example 55-58, 6-Chloro-4-[(2S,5R)-2,5-dimethyl-4-prop-2-enoyl-piperazin-1-yl]-l-(4-ethyl-2-isopropyl-3-pyridyl)-7-(2-fluorophenyl)pyrido[2,3-d]pyrimidin-2-one] | > 7.5 µM | 0.056 µM | – | – |
| C=CC(=O)N1C[C@H](C)N(c2nc(=O)n(-c3c(C(C)C)cccc3C(C)C)c3nc(-c4ccccc4F)c(Cl)cc23)C[C@H]1C [Example 102-1, 4-((2S,5R)-4-Acryloyl-2,5-dimethylpiperazin-1-yl)-6-chloro-1-(2,6-diisopropylphenyl)-7-(2-fluorophenyl)pyrido[2,3-d]pyrimidin-2(1H)-one] | 5.25 µM | 0.395 µM | – | – |
| C=CC(=O)N1C[C@H](C)N(c2nc(=O)n(-c3c(C(C)C)ccnc3C(C)C)c3nc(-c4ccccc4F)c(Cl)cc23)C[C@H]1C [Example 102-3, 6-Chloro-1-(2,4-diisopropyl-3-pyridyl)-4-[(2S,5R)-2,5-dimethyl-4-prop-2-enoyl-piperazin-1-yl]-7-(2-fluorophenyl) pyrido[2,3-d]pyrimidin-2-one] | > 7.5 µM | – | – | 0.032 µM |
| C=CC(=O)N1C[C@H](C)N(c2nc(=O)n(-c3c(C(C)C)cc(Br)nc3C(C)C)c3nc(-c4ccccc4F)c(Cl)cc23)C[C@H]1C [Example 102-4, 1-(6-Bromo-2,4-diisopropyl-3-pyridyl)-6-chloro-4-[(2S,5R)-2,5-dimethyl-4-prop-2-enoyl-piperazin-1-yl]-7-(2-fluorophenyl) pyrido[2,3-d]pyrimidin-2-one] | 4.73 µM | 0.262 µM | – | – |
| C=CC(=O)N1C[C@H](C)N(c2nc(=O)n(-c3c(C(C)C)ccnc3C(C)C)c3nc(-c4ccccc4F)c(Cl)cc23)C[C@H]1C [Example 124-1, 6-Chloro-1-(2,4-diisopropyl-3-pyridyl)-4-[(2S,5R)-2,5-dimethyl-4-prop-2-enoyl-piperazin-1-yl]-7-(2-fluorophenyl)pyrido[2,3-d]pyrimidin-2-one] | – | – | > 7.5 µM | 0.024 µM |
| C=CC(=O)N1C[C@H](C)N(c2nc(=O)n(-c3c(C(C)C)ccnc3C(C)C)c3nc(-c4ccccc4)c(Cl)cc23)C[C@H]1C [Example 124-7, 6-Chloro-1-(2,4-diisopropyl-3-pyridyl)-4-[(2S,5R)-2,5-dimethyl-4-prop-2-enoyl-piperazin-1-yl]-7-phenyl-pyrido[2,3-d]pyrimidin-2-one] | > 7.5 µM | 0.093 µM | – | – |
| C=CC(=O)N1C[C@H](C)N(c2nc(=O)n(-c3c(C(C)C)ccnc3C(C)C)c3nc(-c4ccccc4C(C)C)c(Cl)cc23)C[C@H]1C [Example 124-8, 6-Chloro-1-(2,4-diisopropyl-3-pyridyl)-4-[(2S,5R)-2,5-dimethyl-4-prop-2-enoyl-piperazin-1-yl]-7-(2-isopropylphenyl)pyrido[2,3-d]pyrimidin-2-one] | 6.36 µM | 0.24 µM | – | – |

More lines, main results first:

| IC50 ([1]; Homo sapiens, A549, 2 h) | IC50 ([2]; Homo sapiens, MIA PaCa-2, 2 h) | SMILES | IC50 [1] | IC50 [2] |
| --- | --- | --- | --- | --- |
| > 7.5 µM | 0.049 µM | C=CC(=O)N1C[C@H](C)N(c2nc(=O)n(-c3c(C)cc(C)nc3C(C)C)c3nc(-c4ccccc4F)c(Cl)cc23)C[C@H]1C (single isomer, unassigned) [Example 165-1] | – | – |
| 5.97 µM | 0.229 µM | C=CC(=O)N1C[C@H](C)N(c2nc(=O)n(-c3c(C)cc(C(=C)C)nc3C(C)C)c3nc(-c4ccccc4F)c(Cl)cc23)C[C@H]1C (single isomer, unassigned) [Example 173-1] | – | – |
| > 7.5 µM | 0.171 µM | C=CC(=O)N1C[C@H](C)N(c2nc(=O)n(-c3c(C)cc(N4CCC4)nc3C(C)C)c3nc(-c4ccccc4F)c(Cl)cc23)C[C@H]1C (single isomer, unassigned) [Example 175-2] | – | – |
| 5.75 µM | 0.347 µM | C=CC(=O)N1C[C@H](C)N(c2nc(=O)n(-c3c(C)cc(C(C)C)nc3C(C)C)c3nc(-c4ccccc4F)c(Cl)cc23)C[C@H]1C (single isomer, unassigned) [Example 176-1] | – | – |
| 3.34 µM | 0.063 µM | C=CC(=O)N1C[C@H](C)N(c2nc(=O)n(-c3c(C)cc(C=C)nc3C(C)C)c3nc(-c4ccccc4F)c(Cl)cc23)C[C@H]1C (single isomer, unassigned) [Example 177-1] | – | – |
| > 7.5 µM | 0.1 µM | C=CC(=O)N1[C@H](C)CN(c2nc(=O)n(-c3c(C(C)C)cnnc3C(C)C)c3nc(-c4ccccc4F)c(Cl)cc23)C[C@@H]1C (single isomer, unassigned) [Example 206-1, 4-(cis-4-Acryloyl-3,5-dimethylpiperazin-1-yl)-6-chloro-1-(3,5-diisopropylpyridazin-4-yl)-7-(2-fluorophenyl)pyrido[2,3-d]pyrimidin-2(1H)-one] | – | – |
